Experimental data: ChEMBL document CHEMBL1133407, “Ring constrained analogues of beta-alanine-containing GPIIb/IIIa receptor antagonists” (Bioorg Med Chem Lett, 2000)
pIC50: −log10 of the molar value.

Assays:
[1] = molecular target: T1, Integrin alpha-IIb/beta-3 (Homo sapiens, UniProt P05106+P08514); assay: Relative binding to unactivated/activated platelets
[2] = molecular target: T1, Integrin alpha-IIb/beta-3; assay: Inhibition of Platelet glycoprotein IIb/Platelet glycoprotein IIIa binding in unactivated human platelets
Target sequence in this assay (P05106 27-788 limits assumed): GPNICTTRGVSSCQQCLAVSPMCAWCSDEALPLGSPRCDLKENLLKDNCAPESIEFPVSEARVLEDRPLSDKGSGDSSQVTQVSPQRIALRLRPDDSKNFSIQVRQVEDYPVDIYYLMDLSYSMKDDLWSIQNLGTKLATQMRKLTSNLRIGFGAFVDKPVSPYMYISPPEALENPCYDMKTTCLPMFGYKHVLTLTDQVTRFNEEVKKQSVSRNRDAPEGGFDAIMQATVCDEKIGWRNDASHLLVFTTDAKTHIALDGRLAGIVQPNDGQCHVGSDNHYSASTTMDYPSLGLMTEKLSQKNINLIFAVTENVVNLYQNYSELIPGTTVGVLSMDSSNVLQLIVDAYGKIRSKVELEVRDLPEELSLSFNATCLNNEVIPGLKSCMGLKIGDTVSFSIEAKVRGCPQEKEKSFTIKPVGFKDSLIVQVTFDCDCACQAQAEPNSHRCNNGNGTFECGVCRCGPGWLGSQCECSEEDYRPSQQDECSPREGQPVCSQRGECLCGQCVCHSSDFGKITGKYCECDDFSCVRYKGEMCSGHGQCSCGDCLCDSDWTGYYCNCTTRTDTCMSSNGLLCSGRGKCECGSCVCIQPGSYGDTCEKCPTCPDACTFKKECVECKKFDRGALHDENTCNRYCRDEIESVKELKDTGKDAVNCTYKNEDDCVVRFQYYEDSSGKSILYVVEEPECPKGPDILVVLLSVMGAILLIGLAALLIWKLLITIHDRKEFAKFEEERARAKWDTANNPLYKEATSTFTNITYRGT
Target sequence in this assay (P08514 32-887 limits assumed): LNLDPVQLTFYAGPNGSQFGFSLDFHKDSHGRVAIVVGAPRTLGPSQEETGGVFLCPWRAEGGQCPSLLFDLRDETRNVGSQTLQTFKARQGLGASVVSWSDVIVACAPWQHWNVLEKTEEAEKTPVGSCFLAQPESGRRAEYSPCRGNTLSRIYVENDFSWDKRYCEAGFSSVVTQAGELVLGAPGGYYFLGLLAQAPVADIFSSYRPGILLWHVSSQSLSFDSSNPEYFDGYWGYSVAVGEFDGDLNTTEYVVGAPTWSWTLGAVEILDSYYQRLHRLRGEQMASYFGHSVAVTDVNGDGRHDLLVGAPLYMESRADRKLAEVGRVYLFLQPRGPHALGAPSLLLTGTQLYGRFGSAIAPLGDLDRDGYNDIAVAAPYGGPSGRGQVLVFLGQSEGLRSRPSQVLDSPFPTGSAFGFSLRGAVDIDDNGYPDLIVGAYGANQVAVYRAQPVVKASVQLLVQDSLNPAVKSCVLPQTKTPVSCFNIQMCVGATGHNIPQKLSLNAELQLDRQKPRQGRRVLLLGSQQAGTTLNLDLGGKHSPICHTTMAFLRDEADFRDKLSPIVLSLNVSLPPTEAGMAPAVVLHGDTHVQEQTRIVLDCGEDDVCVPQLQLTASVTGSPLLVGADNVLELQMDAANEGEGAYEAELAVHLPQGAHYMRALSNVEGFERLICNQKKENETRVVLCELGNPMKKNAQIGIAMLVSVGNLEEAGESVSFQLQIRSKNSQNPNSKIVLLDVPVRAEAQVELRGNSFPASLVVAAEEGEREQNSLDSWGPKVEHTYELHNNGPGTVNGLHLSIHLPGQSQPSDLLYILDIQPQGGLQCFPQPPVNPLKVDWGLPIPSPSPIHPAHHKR
Target sequence in this assay (P08514 891-1039 limits assumed): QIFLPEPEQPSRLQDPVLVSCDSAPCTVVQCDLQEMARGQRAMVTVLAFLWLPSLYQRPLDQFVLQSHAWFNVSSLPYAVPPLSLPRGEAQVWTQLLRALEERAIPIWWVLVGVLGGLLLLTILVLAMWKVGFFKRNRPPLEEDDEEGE

[3] = molecular target: T1, Integrin alpha-IIb/beta-3; assay: Inhibition of GPIIb/IIIa binding in activated human platelets; format: functional
Target sequence in this assay (P05106 27-788 limits assumed): as the sequence (P05106 27-788 limits assumed) above
Target sequence in this assay (P08514 32-887 limits assumed): as the sequence (P08514 32-887 limits assumed) above
Target sequence in this assay (P08514 891-1039 limits assumed): as the sequence (P08514 891-1039 limits assumed) above

Ratio [1] | pIC50 [2] | pIC50 [3] | Compound
19 |  |  | N=C(N)c1ccc(C2=NOC(CC(=O)N3CCCCC3CC(=O)O)C2)cc1 (single isomer, unassigned; isomer B) [listing 1 of 2 here]
 | 5.24 | 6.52 | N=C(N)c1ccc(C2=NOC(CC(=O)N3CCCCC3CC(=O)O)C2)cc1 (single isomer, unassigned; isomer B) [listing 2 of 2 here]
 | < 5.30 |  | N=C(N)c1ccc(C2=NOC(CC(=O)N3CCCCC3CC(=O)O)C2)cc1 (single isomer, unassigned; isomer D)
 | 7.19 | 8.70 | N=C(N)c1ccc(C2=NOC(CC(=O)N3CCCCC3CC(=O)O)C2)cc1 (single isomer, unassigned; isomer C) [listing 1 of 2 here]
32 |  |  | N=C(N)c1ccc(C2=NOC(CC(=O)N3CCCCC3CC(=O)O)C2)cc1 (single isomer, unassigned; isomer C) [listing 2 of 2 here]
28 | 6.95 | 8.40 | N=C(N)c1ccc(C2=NOC(CC(=O)NCCC(=O)O)C2)cc1 (stereo not given)
